Measurements: article PMC3954793, “SHP-2 Binds to Caveolin-1 and Regulates Src Activity via Competitive Inhibition of CSK in Response to H2O2 in Astrocytes” (PLoS ONE, 2014)
Entries after “also recorded” stand apart in the source; their conditions may differ. Like-named read-outs stand apart in the source and are kept apart here. Blank lines part the entries; values can stand above or below the compound they belong to. Square brackets hold non-standard residues; d marks the D form. Ends that are not written are not given here. pY = N[C@@H](Cc1ccc(OP(=O)(O)O)cc1)C(=O)O

Tests used:
caveolin-1/CSK complex = assay: Co-immunoprecipitation of caveolin-1 and CSK; type: cell-based, human; details: CRT-MG cells; H2O2 10 min; IP anti-caveolin-1
Method: cDNA encoding full-length human caveolin-1 was obtained from Thermo Scientific (Waltham, MA, USA). The Y14A caveolin-1 mutant was generated using a QuickChange site-directed mutagenesis kit (Stratagene, Santa Clara, CA, USA) using PCR. pCMV-SPORT6-caveolin-1 cDNA (25 ng) was used as a template and added to dNTP mix, Pfu buffer, Pfu turbo DNA polymerase and 125 ng of each of the mutagenic primers: sense, 5′-[…]-3′ and antisense, 5′-[…]-3′. Samples were then incubated at 95°C for 1 min, then for 20 cycles of 95°C for 1 min, 65°C for 4 min, and 68°C for 12 min. The methylated parental DNA template in the PCR product was digested using the DpnI (10 U) restriction enzyme for 3 h at 37°C. […] After mutagenesis, 1 µg of caveolin-1 wild-type (WT) or Y14A mutant DNA was transfected into HEK 293T cells using VIVAMAGIC transfection reagent (VIVAGEN, Seongnam, Korea) containing 10% FBS according to the manufacturer’s instructions for 24 h before treatment with 5 mM H2O2 for 10 min; the cells were then analyzed by immunoblotting.
Cells were plated and transfected with green fluorescence protein (GFP) siRNA (Samchully Pharm Co. Ltd., Seoul, Korea) as a control group and human CSK siRNA and human SHP-2 siRNA from Bioneer (Daejeon, Korea) using Lipofectamine RNAiMAX (Invitrogen, Carlsbad, CA, USA) according to the manufacturer’s instructions to achieve a final concentration of 300 nM. […]

[1] = system: caveolin-1 (Tyr 14 phosphorylation); details: bovine pulmonary artery endothelial cells and placenta artery endothelial cells; ref [28]–[30]; cited from earlier work
ERK phosphorylation = assay: Immunoblot of p-ERK; type: cell-based, human; details: CRT-MG cells; 5 mM H2O2, 10 min
Method: Cells were plated and transfected with green fluorescence protein (GFP) siRNA (Samchully Pharm Co. Ltd., Seoul, Korea) as a control group and human CSK siRNA and human SHP-2 siRNA from Bioneer (Daejeon, Korea) using Lipofectamine RNAiMAX (Invitrogen, Carlsbad, CA, USA) according to the manufacturer’s instructions to achieve a final concentration of 300 nM.
(§1) Figure 7 SHP-2 and CSK reciprocally regulate H2O2-induced Src activation. […] Tubulin was evaluated as a loading control. Bottom panel, Densitometric quantification of p-Src Y419 levels (empty bars) and p-Src Y530 levels (filled bars), normalized to the level of total Src. Results are expressed as percentage of H2O2-treated values in control siRNA presented as mean ± SD. (*p<0.05 vs. H2O2-treated cells transfected with control siRNA; #p<0.05 between SHP-2 siRNA-transfected cells and CSK siRNA-transfected cells; n = 3). (B) Inhibition of SHP-2 by PTPi IV attenuated the H2O2-induced activation of the Src signaling pathway. CRT-MG cells were treated with 5 mM H2O2 or not for 10 min in the presence of 5 or 10 µM PTPi IV for 30 min, and lysed in cold-RIPA buffer. Antibodies against p-SHP-2, SHP-2, p-Src, Src, p-FAK, FAK, p-ERK, ERK, and tubulin were used for immunoblotting. Bottom panel, Densitometric quantification of p-Src Y419 levels (empty bars) and p-Src Y530 levels (filled bars), normalized to the level of total Src. […] (p, phospho).

[2] = system: caveolin-1 (Tyr 14 phosphorylation); assay: Immunoblot of p-caveolin-1 in human astroglioma cells and HUVECs; type: cell-based; details: for suppression of H2O2-induced caveolin-1 phosphorylation: pretreated 30 min, then 5 mM H2O2 for 10 min, percentage of H2O2-treated values, three independent experiments
From the text: HUVECs were utilized as a positive control. Data are representative of at least three experiments. […] Data are representative of three independent experiments.

[3] = system: caveolin-1 (Tyr 14 phosphorylation); details: rat primary astrocytes; 1 mM H2O2, 10 min; immunoblot
caveolin-1/SHP-2 complex = details: CRT-MG cells; 5 mM H2O2, 10 min; PLA red dots; repeated 4 times
FAK phosphorylation = assay: Immunoblot of p-FAK; type: cell-based, human; details: CRT-MG cells; 5 mM H2O2, 10 min
Method: as §1

recombinant GST-CSK = assay: PepSPOTs assay, rGST-CSK; type: binding; details: 13-mer peptides of caveolin-1 (1–85) with phosphorylated Tyr 6, 14, 25, 42 on cellulose membrane; 1 µg rGST-CSK, overnight; repeated 3 times
Method: (§2) Identification of binding sites for recombinant SHP-2 and CSK in the caveolin-1 protein was performed using PepSPOTs (JPT Peptide Technologies GmbH, Berlin, Germany). Synthetic peptide sequences of caveolin-1 (1–85 and 1–28) were used in this study. The peptide library contained either 13-mer peptides that overlapped by 5 residues or 13-mer peptides that overlapped by 8 residues. Each spot carried approximately 5 nmol of peptide covalently bound to the cellulose-betaalanine-membrane (N-terminus: acetyl). Two identical membranes were incubated overnight with either recombinant GST-SHP-2 (rGST-SHP-2) or GST-CSK (rGST-CSK) respectively, and immunoblotting was performed to detect rGST-SHP-2/caveolin-1 peptide and rGST-CSK/caveolin-1 peptide interactions.
(§3) Figure 4 Both SHP-2 and CSK bind specifically to phosphorylated caveolin-1 at Tyr 14. (A) Schematic diagram of caveolin-1. (B) A peptide array assay was performed to identify the binding site for recombinant SHP-2 and CSK in the caveolin-1 protein. Schematic diagram of the synthetic peptide sequences of caveolin-1 (1–85) spotted on the membrane used for study is shown in the left panel. The peptide numbering starts with 1 in the left corner and the phosphorylated tyrosine residues are indicated in bold. […]

recombinant GST-SHP-2 = target: T1, recombinant GST-SHP-2 (Homo sapiens, UniProt Q06124); assay: PepSPOTs assay, rGST-SHP-2; type: binding; details: 13-mer peptides of caveolin-1 (1–85) with phosphorylated Tyr 6, 14, 25, 42 on cellulose membrane; 1 µg rGST-SHP-2, overnight; repeated 3 times
T1 construct: purchased Abnova (Taipei, Taiwan)
T1 sequence (Q06124 1-593): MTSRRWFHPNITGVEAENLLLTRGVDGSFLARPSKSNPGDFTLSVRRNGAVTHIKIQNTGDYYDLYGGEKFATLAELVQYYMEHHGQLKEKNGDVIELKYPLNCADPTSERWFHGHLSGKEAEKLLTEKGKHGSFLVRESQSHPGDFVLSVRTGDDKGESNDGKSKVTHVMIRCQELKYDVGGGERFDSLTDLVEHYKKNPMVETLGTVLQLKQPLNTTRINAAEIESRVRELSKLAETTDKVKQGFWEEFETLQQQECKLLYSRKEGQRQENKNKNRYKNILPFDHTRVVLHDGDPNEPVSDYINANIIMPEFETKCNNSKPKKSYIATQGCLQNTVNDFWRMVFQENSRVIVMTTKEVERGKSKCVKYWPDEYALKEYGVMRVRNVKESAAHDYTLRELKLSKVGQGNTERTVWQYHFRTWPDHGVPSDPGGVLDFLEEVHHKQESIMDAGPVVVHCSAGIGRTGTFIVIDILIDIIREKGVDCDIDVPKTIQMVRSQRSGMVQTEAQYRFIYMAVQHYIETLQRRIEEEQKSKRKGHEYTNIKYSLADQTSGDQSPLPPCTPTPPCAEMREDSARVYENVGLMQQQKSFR
Method: as §2, §3

Compound: OO [H2O2, hydrogen peroxide]
- complex formation between caveolin-1 and CSK (caveolin-1/CSK complex): complex formation occurred between caveolin-1 and CSK
- phosphorylation of caveolin-1 at Tyr 14 [1]: induces the phosphorylation of caveolin-1 at Tyr 14
- phosphorylation of ERK 1/2, H2O2-induced (ERK phosphorylation): leads to phosphorylation of ERK 1/2 and FAK
- level of Tyr-phosphorylated caveolin-1, dose dependence ([2]; CRT-MG cells, H2O2 0–5 mM, 10 min, normalized to tubulin, mean ± SD from three experiments): dose-dependent increase in the level of Tyr-phosphorylated caveolin-1 up to a concentration of 5 mM
- phosphorylation of caveolin-1 at Tyr 14 ([2]; HUVECs (positive control), 1 mM H2O2, 10 min, immunoblot): induced the phosphorylation of caveolin-1
- phosphorylation of caveolin-1 at Tyr 14 [3]: induced the phosphorylation of caveolin-1; also recorded: strongly induced phosphorylation of caveolin-1 at Tyr 14
- direct interaction between SHP-2 and caveolin-1 (caveolin-1/SHP-2 complex): a direct interaction between SHP-2 and caveolin-1 (indicated by red dots) occurred
- phosphorylation of FAK, H2O2-induced (FAK phosphorylation): leads to phosphorylation of ERK 1/2 and FAK

Compound: CC(=O)N[C@@H](CS)C(=O)O [NAC, N-acetyl-L-cysteine]
- suppression of H2O2-induced caveolin-1 phosphorylation ([2]; CRT-MG cells): considerably suppressed H2O2-induced caveolin-1 phosphorylation in a dose-dependent manner; also recorded: modest compared to catalase

Compound: catalase
- suppression of H2O2-induced caveolin-1 phosphorylation ([2]; CRT-MG cells): considerably suppressed H2O2-induced caveolin-1 phosphorylation in a dose-dependent manner; also recorded: completely abrogates H2O2-induced caveolin-1 phosphorylation

- binding of rGST-CSK to caveolin-1 peptide spots (recombinant GST-CSK): strong binding
Compound: spot 2: residues 9–21 of caveolin-1 (spot 2), which included Tyr 14 (Ac-SEGHL[pY]TVPIREQ)
- binding of rGST-SHP-2 to caveolin-1 peptide spots (recombinant GST-SHP-2): only 1 spot of bound recombinant SHP-2 was detected
